Values of other authors as cited in patent US20060229344A1, “Method of treating amyotrophic lateral sclerosis” (priority 2005, published 2006).

Legend:
[1] = in vivo
[2] = in vivo; remark: listed apart in the source

In the case of `Cc1cc(CCCOc2c(C)cc(-c3noc(C(F)(F)F)n3)cc2C)on1` [VP 63843, 3-[3,5-dimethyl-4-[[3-(3-methyl-5-isoxazolyl)propyl]oxy]phenyl]-5-(trifluoromethyl)-1,2,4-oxadiazole], the side-effects [1] is given as “few side-effects”, the tolerability [1] is given as “well tolerated” and the toxicity [1] is given as “little toxicity”. The “crossing into the central nervous system and gray matter” value [2] was “crosses readily into the central nervous system and into gray matter” and the “absorption after oral administration” value was “well absorbed”.
